Test results: patent publication US12037324B2, “Biarylmethyl heterocycles” (Université de Montréal, priority 2016, dated 2024)

Assays:
AGTR1 [1] = target: T1, AGTR1 (Homo sapiens, UniProt P30556); test: DiscoveRx IP1 accumulation assay (HTRF), agonist mode, Pathunter CHO-K1 AGTR1 β-arrestin cell line; format: cell-based; details: for EC50: read-out: IP-1 EC50
T1 construct: host or cells: Pathunter CHO-K1 AGTR1 β-arrestin cell line (CHO-K1)
T1 sequence (P30556 1-359): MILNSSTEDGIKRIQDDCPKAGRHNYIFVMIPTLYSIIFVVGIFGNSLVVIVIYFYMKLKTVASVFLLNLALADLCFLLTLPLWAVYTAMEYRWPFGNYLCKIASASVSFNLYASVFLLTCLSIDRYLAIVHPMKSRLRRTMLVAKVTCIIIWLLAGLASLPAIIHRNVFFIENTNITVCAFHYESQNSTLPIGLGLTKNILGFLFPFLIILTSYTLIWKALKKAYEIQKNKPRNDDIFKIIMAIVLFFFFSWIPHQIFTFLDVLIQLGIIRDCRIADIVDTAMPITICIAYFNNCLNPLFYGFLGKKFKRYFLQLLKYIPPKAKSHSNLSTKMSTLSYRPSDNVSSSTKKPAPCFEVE
Method in brief: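 Agonist mode in CHO-K1 AGTR1 β-arrestin cells plated 14-16 h before; compounds at varying concentrations for 90 min at 37° C, IP1 accumulation read by HTRF (D2-conjugate and anti-IP1 cryptate, 20 min room temperature). EC50 from 4-parameter logistic fit; activity given as percentage of maximal AII effect.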

AGTR1 [2] = target: T1, AGTR1; test: DiscoveRx β-arrestin2 recruitment assay (enzyme complementation, Pathunter CHO-K1 AGTR1 β-arrestin cell line); format: cell-based; details: DiscoveRx β-arrestin2 recruitment; for DiscoveRx β-arrestin2 Ymax (%): maximal response
Method in brief: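 Chemiluminescent enzyme-complementation read-out of β-arrestin2 recruitment to AGTR1 in engineered CHO-K1 cells after 90 min compound exposure at 37° C. Values are 4-parameter logistic EC50s in agonist mode, IC50s in antagonist mode, with efficacy relative to the maximal All response.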

hAT1R [3] = target: T2, hAT1R (Homo sapiens, UniProt P30556); test: cell-based; details: section of the 42nd table ending at r951, example numbering restarts after the DiscoveRx section; read-out: β-arrestin2 EC50
T2 sequence (P30556 1-359): T1 sequence (P30556 1-359)

hAT1R [4] = target: T2, hAT1R; test: cell-based; details: agonist mode; for EC50: read-out: BRET P63 EC50
hAT1R [5] = target: T2, hAT1R; test: BRET β-arrestin2 biosensor assay, higher receptor expression (hAT1R 5 ng/well), HEK293 cells; format: cell-based; details: for EC50: High AT1R Expression

SMILES | IP-1 Ymax (%) (AGTR1 [1]) | EC50 (AGTR1 [1]) | EC50 (AGTR1 [2]) | DiscoveRx β-arrestin2 Ymax (%) (AGTR1 [2]) | EC50 (hAT1R [3]) | BRET P63 Ymax (hAT1R [4]) | EC50 (hAT1R [4]) | BRET β-Arrestin2 High AT1R Expression Ymax (%) (hAT1R [5]) | EC50 (hAT1R [5])
CCc1nc2c(C)cc(C)nc2n1Cc1ccc(-c2cc(-c3cn(CCO)nn3)ccc2-c2nnn[nH]2)cc1 [Example 235] | 14.9% | 213 nM | 56.6 nM | 56.0% | 129 nM | 17.7% | 161 nM | 89.5% | 29.6 nM
CCCn1cc(-c2ccc(-c3nnn[nH]3)c(-c3ccc(Cn4c(CC)nc5c(C)cc(C)nc54)cc3)c2)nn1 [Example 236] | 19.2% | 48.2 nM | 12.5 nM | 60.8% | 17.3 nM | 36.2% | 34.6 nM | 93.3% | 3.6 nM
CCc1nc2c(C)cc(C)nc2n1Cc1ccc(-c2cc(-c3cn(CC4CC4)nn3)ccc2-c2nnn[nH]2)cc1 [Example 237] | 13.7% | 79.7 nM | 55.3 nM | 62.3% | 112 nM | 21.1% | 60.5 nM | 84.4% | 16.3 nM
CCc1nc2c(C)cc(C)nc2n1Cc1ccc(-c2cc(-c3ccccc3)ccc2-c2nsc(=O)[nH]2)cc1 [Example 245] | 12.7% | 89.4 nM | 115 nM | 75.5% | 24.1 nM | 23.3% | 27.2 nM | 88.8% | 4.9 nM
CCc1nc2c(C)cc(C)nc2n1Cc1ccc(-c2cc(Oc3ccccn3)ccc2-c2nnn[nH]2)cc1 [Example 247, 2-Ethyl-5,7-dimethyl-3-((5′-(pyridin-2-yloxy)-2′-(1H-tetrazol-5-yl)-[1,1′-biphenyl]-4-yl)methyl)-3H-imidazo[4,5-b]pyridine] | – | > 100000 nM | 6.9 nM | 30.8% | 22.7 nM | – | > 10000 nM | 74.4% | 13.8 nM
CCc1nc2c(C)cc(C)nc2n1Cc1ccc(-c2cc(Oc3cc(C)ccn3)ccc2-c2nn[nH]n2)cc1 [Example 250] | 28.9% | 50.5 nM | 23 nM | 43.9% | 11 nM | 14.1% | 9.3 nM | 79.8% | 3.8 nM
CCc1nc2c(C)cc(C)nc2n1Cc1ccc(-c2cc(Oc3cc(Cl)ccn3)ccc2-c2nn[nH]n2)cc1 [Example 251] | 10.9% | 182 nM | 33.6 nM | 20.2% | 8.2 nM | 6.7% | 11.1 nM | 57.2% | 10.6 nM
CCc1nc2c(C)cc(C)nc2n1Cc1ccc(-c2cc(Oc3ncccc3F)ccc2-c2nn[nH]n2)cc1 [Example 253] | 18.7% | 133 nM | 31.2 nM | 37.2% | 46 nM | 12.6% | 38.3 nM | 85.3% | 17.9 nM
CCc1nc2c(C)cc(C)nc2n1Cc1ccc(-c2cc(Oc3cc(F)ccn3)ccc2-c2nn[nH]n2)cc1 [Example 254] | 30.0% | 177 nM | 35.8 nM | 26.9% | 59.1 nM | 7.1% | 39.9 nM | 75.6% | 20 nM
CCc1nc2c(C)cc(C)nc2n1Cc1ccc(-c2cc(Oc3ncccc3Cl)ccc2-c2nn[nH]n2)cc1 [Example 255] | 7.8% | 471 nM | 123 nM | 26.3% | 87.8 nM | 6.0% | 22.5 nM | 80.2% | 24.3 nM
